# Assay results reported in US10758536B2, “Method for treating shingles with N-methanocarbathymidine (N-MCT)” (priority 2015, dated 2020).
# Entries after “also recorded” stand apart in the source; their conditions may differ.
# Experiments:
# VZV [1] = experiment: SCID-Hu mouse model of VZV replication, oral dose range; format: in vivo, varicella-zoster virus
# Protocol: SCID-hu mice with human skin xenografts were infected intradermally with VZV and treated orally twice daily with vehicle, PFA (positive control), or N-MCT at 5, 10, 20, 25, 50, or 100 mg/kg/day. Virus spread was measured daily by in vivo bioluminescence imaging (IVIS). […] The results were analyzed for statistical significance by ANOVA and Dunnett's post hoc test of multiple comparisons (GraphPad Prism).
# VZV [2] = experiment: Skin organ culture topical Assay 2: delayed treatment; format: cell-based, varicella-zoster virus
# Protocol: (§1) Place 36 mL deionized sterile water into small beaker with stir bar. Slowly waft 900 mg of carbopol (980 NF, Lot # CCONLCC013, Lubrizol Corp) into water, avoiding clumps. Add equal volume N-MCT in 20% hydroxypropyl-β-cyclodextrin (Sigma) at 2× to reach the desired concentration. Add 2 drops NaOH (18% solution) to attain a pH near 5.0. Store at 4° C. The 0.5% cidofovir gel was made in a similar manner except that cidofovir was dissolved in water. The DMSO vehicle was prepared by adding a 2% DMSO solution in water to the carbopol suspension at a 1:1 ratio. Hydroxypropyl-β-cyclodextrin (HPBCD) was prepared by mixing 5.0 g with 20 mL sterile water. Stock solution of N-MCT was prepared by dissolving 90 mg N-MCT in 9 mL 20% HPBCD and sonicating for 1 min.
# (§2) Human fetal skin was purchased from ABR and delivered by overnight courier on wet ice. The tissue was cleaned, disinfected in betadine and 70% ethanol, then cut into pieces approximately 1-cm^2. Each piece was inoculated with VZV-BAC-Luc strain that expresses firefly luciferase. Approximately 3 hours after inoculation, the pieces of skin were placed in NetWells above tissue culture medium and incubated overnight. The next day (Day 1) each piece of skin was soaked in D-luciferin for 45 min, and then scanned in the IVIS-50 instrument to measure Total Flux, which is a correlate of VZV pfu. The drug treatment began on Day 1 or later by spreading an aqueous gel (carbopol) containing N-MCT at concentrations of 0.05, 0.5, or 5% (see Assay 1 in Table 4 below). One group of skin was treated with cidofovir ([…] in carbopol gel) for a positive control. Each group contained 4-6 pieces of skin. The drug was applied daily until Day 5 (or other intervals), and then the skin pieces were scanned by IVIS to determine virus yield. […] The results were analyzed for statistical significance by ANOVA and Dunnett's post hoc test of multiple comparisons (GraphPad Prism).
# This assay differs from Assay 1 in that the Vehicle was prepared with 10% HPBCD, which is the solvent for the N-MCT. Refer to Assay #2 in Table 4 above. Three groups were treated on Days 1-4 and scanned on Day 5, which is the typical assay protocol. Two groups were treated after a delay of several days, which more closely reflects a clinical scenario of zoster. All treated groups received the same preparation of 0.5% N-MCT in carbopol with 10% HPBCD. VZV yield was reduced in the Vehicle group during the treatment phase, and then rebounded. This was likely due to the effects of HPBCD, which has known antiviral properties. […] In contrast, VZV yield increased until Day 5 in the group that received no treatment until after this scan. The difference between this group and the Vehicle group was notable, since they were expected to be similar.
# VZV [3] = experiment: Skin organ culture Assays 4 and 5: topical ointment vehicles; format: cell-based, varicella-zoster virus
# Text: Another objective of the invention was to test N-MCT at 0.5% in a variety of topical formulations in the SOC assay. The purpose was to determine the optimal topical formulation for N-MCT in full-thickness human skin. Human fetal skin was purchased from ABR and delivered by overnight courier on wet ice. The tissue was cleaned, disinfected in betadine and 70% ethanol, then cut into pieces approximately 1-cm^2. Each piece was inoculated with VZV-BAC-Luc strain that expresses firefly luciferase. Approximately 3 hours after inoculation, the pieces of skin were placed in NetWells above tissue culture medium and incubated overnight. The next day (Day 1) each piece of skin was soaked in D-luciferin for 45 min, and then scanned in the IVIS-50 instrument to measure Total Flux, which is a correlate of VZV pfu. The negative control group was not treated with drug or vehicle. The positive control drug treatment began on Day 1 by placing the skin, in NetWells, over medium containing 0.1 μg/mL N-MCT (see Table 5 below). The ointments were formulated with N-MCT by adding dry powder to the vehicle on a glass slab, then mixing thoroughly with a metal spatula. The ointments were warmed to 37° C. before spreading on the skin pieces with a Dacron swab. […] The virus yield in each piece of skin was calculated by dividing the Total Flux measured on Day 5 by Day […]
# [4] = Mouse weights and tolerability
# Protocol: CB.17 scid/beige male mice were implanted subcutaneously with human fetal skin (the same type of specimens used for the skin organ culture assay). After 3 weeks engraftment period, the skin implants were inoculated with VZV-BAC-Luc. The mice were divided into 5 groups of 12 mice: vehicle, positive control drug, N-MCT low dose, medium dose, and high dose (see FIGS. 3A, 3B, 4A and 4B). Treatment began approximately 2 hours after the inoculation surgery and was administered by oral gavage. Treatment continued twice daily (8:30 am and 8:30 pm) on Days 1-7. The mice were scanned in the IVIS-200 instrument daily from Day 1-8. The mice were weighed before the start of the study and daily during the treatment phase.
# CB.17 scid/beige male mice were implanted subcutaneously with human fetal skin (the same type of specimens used for the skin organ culture assay). After 3 weeks engraftment period, the skin implants were inoculated with VZV-BAC-Luc (5×10^3 pfu/implant). The mice were divided into 5 groups of 12 mice: vehicle, positive control drug cidofovir delayed to Days 4-11, N-MCT 50 mg/kg Days 0-7, Days 4-11, or Days 7-13 (see Table 6 below). Treatment began approximately 2 hours after the inoculation surgery and was administered by oral gavage. Treatment continued twice daily (8:30 am and 8:30 pm) on schedule. […] The mice were scanned in the IVIS-200 instrument daily from Day 1-14. The mice were weighed before the start of the study and daily during the treatment phase. The antiviral effects of N-MCT were determined by assessing the VZV growth kinetics and rates (Log10 Total Flux/day).
# The animals used in this experiment were SCID-beige mice purchased from Taconic (age 6-7 weeks).
# VZV [5] = experiment: Skin organ culture topical Assay 1: dose dependence (carbopol gel); format: cell-based, varicella-zoster virus
# Protocol: as §1
# A skin organ culture model was used to evaluate N-MCT as a topical treatment for VZV. Human skin explants were inoculated with VZV by scarification and treated daily from 1-4 days post infection with N-MCT (0.05, 0.5, or 5%) or cidofovir (0.5%, positive control) in a carbopol gel.
# as §2
# [6] = 50 mg/kg oral gavage, delayed-treatment study
# [7] = all doses, dose-range study in mice
smiles,measurement,setting,value
"Cc1cn([C@]23C[C@H](O)[C@@H](CO)[C@@H]2C3)c(=O)[nH]c1=O [N-MCT, N-methanocarbathymidine]","VZV spread in mouse model, effectiveness",VZV [1]; 5-100 mg/kg/day p.o. BID,prevents VZV spread; also recorded: effective
same,VZV yield and growth rates compared to vehicle,"VZV [1]; all doses, N-MCT 5-100 mg/kg/day BID, p<0.0001, ANOVA and Dunnett",significantly reduced
same,"doses more effective than control antiviral compounds (PAA, PFA, cidofovir)",VZV [1]; mouse model of virus replication,> 10 mg/kg/day
same,optimal dose,"VZV [1]; p.o. BID, SCID-Hu mice",approximately 20 mg/kg/day
same,"VZV yield, treatment on Days 3-6","VZV [2]; 0.5% N-MCT QD 3-6 dpi, by Day 7",reduced to a similar low level
same,"VZV yield, treatment begun on Day 5",VZV [2]; 0.5% N-MCT QD 5-8 dpi,decreased sharply
same,VZV rebound after treatment on Days 1-4,VZV [2]; 0.5% N-MCT in carbopol with 10% HPBCD,no rebound was observed
same,"VZV yield, treatment on Days 1-4","VZV [2]; 0.5% in carbopol QD 1-4 dpi, during and after treatment",equally reduced
same,effectiveness as topical treatment when VZV infection established for 3-5 days,VZV [2]; skin organ culture,highly effective
same,effectiveness as topical formulation in SOC model,"VZV [3]; 0.5% N-MCT in ointments, daily, scan Day 5",highly effective
same,"virus yield on Day 10 after treatment stopped, fold less","VZV [3]; no treatment after Day 5, groups treated with N-MCT",100 fold
same,tolerability,[4]; [6],well tolerated; also recorded: well-tolerated
same,weight loss,[4]; [6],minimal weight loss
same,tolerability,[4]; [7],well tolerated
same,weight loss,[4]; [7],did not cause excessive weight loss
same,VZV yield compared to vehicle,"VZV [5]; N-MCT 0.05, 0.5, 5% or cidofovir in carbopol gel, daily, p<0.0004",significantly reduced
same,"VZV replication in skin explants, topical gel","VZV [5]; N-MCT 0.05-5%, cidofovir 0.5% in carbopol gel",prevented VZV replication
same,reduction of virus yield compared to the vehicle group,"VZV [5]; all concentrations, topical carbopol gel, p=0.0004",approximately 100 fold
same,"effective topical concentration, as low as","VZV [5]; carbopol gel with 10% hydroxypropyl-β-cyclodextrin, human skin explants",≥ 0.05%
